{"source": "patent US6193992A", "about": "“Female sexual dysfunction treatment” (Pentech Pharmaceuticals, Inc., priority 1999, dated 2001)", "key": {"[1]": {"tested_on": "clitoral intracavernosal blood flow", "assay": "Effect of apomorphine on clitoral intracavernosal blood flow (laser Doppler flow) before and after pelvic nerve stimulation", "format": "in vivo, New Zealand White female rabbits", "conditions": "intravenous, female rabbits", "protocol": "(§1) New Zealand White female rabbits (n=6, about 3.5-4 kg) were anesthetized with intravenous administration of pentobarbital. A 20 gauge angiocatheter was placed into the right carotid artery for measurement of systemic arterial pressure. A midline abdominal incision was made and the pelvic nerve branch to the vagina and clitoris was dissected. Nerve stimulation was performed with a Harvard subminiature electrode placed around the pelvic nerve branch to the vagina and clitoris and connected to a Grass SD-9 stimulator. Clitoral intracavernosal and vaginal wall blood flow were measured with a laser Doppler flow probe placed directly into the clitoral cavernosal tissue or into the vaginal wall and connected to a laser Doppler flowmeter.\n(§2) Basal arterial blood pressure and clitoral and vaginal blood flow were each recorded before and then after stimulation of the pelvic nerve branch to the clitoris and vagina."}, "[2]": {"tested_on": "vaginal wall blood flow", "assay": "Effect of apomorphine on vaginal wall blood flow (laser Doppler flow) before and after pelvic nerve stimulation", "format": "in vivo, New Zealand White female rabbits", "conditions": "female rabbits", "protocol": "as §1, §2"}, "[3]": {"tested_on": "systemic arterial pressure", "assay": "Effect of apomorphine on systemic arterial pressure", "format": "in vivo, New Zealand White female rabbits", "conditions": "intravenous, female rabbits, FIG. 3", "protocol": "as §1, §2"}, "[4]": {"tested_on": "vaginal and clitoral blood flow", "assay": "Optimum dose for vasculogenic effect on nerve stimulated vaginal and clitoral blood flow", "format": "in vivo, New Zealand White female rabbits", "conditions": "female rabbits", "protocol": "as §1, §2"}, "[5]": {"tested_on": "sexual readiness (clitoral erectogenesis and vaginal engorgement on sexual stimulation)", "assay": "Extrapolation of rabbit optimum dose to human females (sexual readiness dose)"}, "[6]": {"tested_on": "penile erection", "conditions": "cited from earlier work"}, "[7]": {"tested_on": "emesis", "conditions": "subcutaneous, about a 5-milligram dose; cited from earlier work"}, "[8]": {"conditions": "apomorphine hydrochloride studies reported in the literature; cited from earlier work"}}, "note": "Entries after “also recorded” stand apart in the source; their conditions may differ.", "data": [{"molecule": "CN1CCc2cccc3c2[C@H]1Cc1ccc(O)c(O)c1-3", "note": "[apomorphine, Apomorphine]", "values": [{"measurement": "nerve stimulation-induced peak clitoral intracavernosal blood flow, concentration dependence", "setting": "[1]; 0.05 mg/kg to 0.2 mg/kg, FIG. 1", "result": "concentration dependent increase"}, {"measurement": "nerve stimulation-induced peak clitoral intracavernosal blood flow, significance vs before apomorphine administration", "setting": "[1]; 0.1 mg/kg, 0.2 mg/kg and 0.3 mg/kg, FIG. 1", "result": "statistically significant increase; also recorded: significant increase in nerve stimulation-induced peak clitoral intracavernosal blood flow"}, {"measurement": "effect on baseline clitoral intracavernosal blood flow", "setting": "[1]; before nerve stimulation", "result": "did not affect baseline clitoral intracavernosal blood flow"}, {"measurement": "effect on nerve stimulation-induced increase in vaginal wall blood flow", "setting": "[2]; 0.4 mg/kg", "result": "adverse effect"}, {"measurement": "nerve stimulation-induced peak vaginal wall blood flow, concentration dependence", "setting": "[2]; intravenous, 0.05 and 0.2 mg/kg, FIG. 2", "result": "concentration dependent increase"}, {"measurement": "nerve stimulation-induced peak vaginal wall blood flow, significance vs before apomorphine administration", "setting": "[2]; intravenous, 0.1 and 0.2 mg/kg, FIG. 2", "result": "statistically significant increase; also recorded: significant increase in vaginal wall blood flow"}, {"measurement": "effect on basal vaginal wall blood flow", "setting": "[2]; intravenous, before nerve stimulation", "result": "did not affect basal vaginal wall blood flow"}, {"measurement": "diastolic arterial pressure", "setting": "[3]; increasing doses 0.05-0.4 mg/kg", "result": "concentration dependent moderate decrease"}, {"measurement": "systolic arterial pressure", "setting": "[3]", "result": "minimal effect"}, {"measurement": "optimum intravenous dosage for vasculogenic effect on nerve stimulated vaginal and clitoral blood flow", "setting": "[4]; body weight", "result": "about 100 μg/kg"}, {"measurement": "optimal dose", "setting": "[4]; intravenous", "result": "about 0.1 mg/kg"}, {"measurement": "optimum dosage for human females", "setting": "[5]; correlated from rabbit intravenous dosage (about 1/10)", "result": "~10", "unit": "µg/kg"}, {"measurement": "effective dose in a human female", "setting": "[5]; correlated from rabbit intravenous dose (about 1/10)", "result": "about 0.01 mg/kg"}, {"measurement": "significant sexual readiness dose", "setting": "[5]; sublingual tablet, women, about 70 kilograms", "result": "about 76 μg/kg"}, {"measurement": "significant sexual readiness dosage", "setting": "[5]; sublingual, 70 kg weight woman", "result": "about 76 micrograms/kg"}, {"measurement": "erectogenic effect in males", "setting": "[6]; males, research and clinical studies", "result": "erectogenic effect manifested by penile erection"}, {"measurement": "induction of erection on oral administration", "setting": "[6]; oral, psychogenic patient, U.S. Pat. No. 5,624,677 and Heaton et al.", "result": "can be used to induce an erection"}, {"measurement": "plasma concentration maintained for stimulation sufficient to cause an erection", "setting": "[6]; sublingual, patient", "result": "no more than 5.5 ng/ml"}, {"measurement": "emetic effect", "setting": "[7]", "result": "emetic"}, {"measurement": "pharmacokinetics, females versus males", "setting": "[8]", "result": "the same for both females and males"}]}]}
